Experimental data from patent US7622489B2, “Mitotic kinesin inhibitors” (Merck & Co., Inc., priority 2002, dated 2009).

Biological target: T1, human KSP motor domain (KSP(367H)) (Homo sapiens, UniProt P52732)
T1 construct: were used to amplify the motor domain and the neck linker region; made in house; host or cells: E. coli BL21 (DE3), vector pRSETa
T1 sequence (P52732 18-359 limits assumed): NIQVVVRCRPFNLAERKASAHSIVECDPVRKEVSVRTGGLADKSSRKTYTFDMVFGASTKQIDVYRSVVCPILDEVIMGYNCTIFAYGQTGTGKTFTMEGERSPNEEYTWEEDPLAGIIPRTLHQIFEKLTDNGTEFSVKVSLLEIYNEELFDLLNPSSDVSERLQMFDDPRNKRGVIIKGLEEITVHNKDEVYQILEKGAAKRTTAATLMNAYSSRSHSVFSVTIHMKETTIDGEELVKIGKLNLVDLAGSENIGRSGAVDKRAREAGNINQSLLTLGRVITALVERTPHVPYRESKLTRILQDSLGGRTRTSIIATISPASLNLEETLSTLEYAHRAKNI
Experiment: Kinesin ATPhase In Vitro Assay
Assay type: biochemical
Details: kinesin motor domain with microtubules, 1 mM ATP, 23° C.; free phosphate by quinaldine red/ammonium molybdate, 540 nm
Source text: I. Kinesin ATPhase In Vitro Assay
Cloning and Expression of Human Poly-Histidine Tagged KSP Motor Domain (KSP(367H))
Plasmids for the expression of the human KSP motor domain construct were cloned by PCR using a pBluescript full length human KSP construct (Blangy et al., Cell, vol. 83, pp1159-1169, 1995) as a template. The N-terminal primer 5′-[…] (SEQ. ID. NO.: 1) and the C-terminal primer 5′-[…] […] (SEQ. ID. NO.: 2) were used to amplify the motor domain and the neck linker region. The PCR products were digested with AseI and XhoI, ligated into the NdeIlXhoI digestion product of pRSETa (Invitrogen) and transformed into E. coli BL21 (DE3).
Cells were grown at 37 IC to an OD600 of 0.5. […]
The kinesin motor domain is incubated with microtubules, 1 mM ATP (1:1 MgCl2: Na-ATP), and compound at 23° C. in buffer containing 80 mM K-HEPES (pH 7.0), 1 mM EGTA, 1 mM DTT, 1 mM MgCl2, and 50 mM KCl. […] Free phosphate from the ATP hydrolysis reaction is measured via a quinaldine red/ammonium molybdate assay by adding 150 μl of quench C buffer containing a 2:1 ratio of quench A:quench B. Quench A contains 0.1 mg/mil quinaldine red and 0.14% polyvinyl alcohol; quench B contains 12.3 mM ammonium molybdate tetrahydrate in 1.15 M sulfuric acid. The reaction is incubated for 10 minutes at 23° C., and the absorbance of the phospho-molybdate complex is measured at 540 nm.

IC50 [µM]	SMILES
≤ 15	CC(C)[C@H](N)C(=O)N1CCC(c2cc(F)ccc2F)=CC1c1cccc(O)c1 (some centres unmarked) [Compound 2-2]
≤ 15	CNCC(C)CN(C)C(=O)N1CCC(c2cc(F)ccc2F)=CC1c1cccc(O)c1 (centres unmarked) [Compound 3-3, 4-(2,5-difluorophenyl)-6-(3-hydroxyphenyl)-N-methyl-N-[2-methyl-3-(methylamino)propyl]-3,6-dihydropyridine-1(2H)-carboxamide]
